According to patent publication US5869484A, “Phenylcarbamate derivatives suitable to the use as anticholinesterase substances” (priority 1994, dated 1999):
Read-outs that look alike come from different tables or passages of the source.

Tests used:
AChE E. eel = target: T1, AChE E. eel (Electrophorus electricus, UniProt O42275); assay: biochemical; set-up: species or system Electric Eel
T1 construct: purchased Sigma Chemical
Method: (§1) The incubation time between enzyme and product used for the determinations has been 10'.
(§2) The acetylcholinesterase from human erythrocytes (AChE hRBC), the acetylcholinesterase from Electric Eel (AChE E.eel) and the butyrylcholinesterase from human serum (BuChE hserum) coming from the Sigma Chemical have been used.

AChE hRBC = target: T2, AChE hRBC (Homo sapiens, UniProt P22303); assay: biochemical; details: for AChE inhibitory activity and selectivity: AChE versus BuChE, Table 1
T2 construct: purchased Sigma Chemical; host or cells: human erythrocytes
Method: as §1, §2

BuChE hserum = target: T3, BuChE hserum (Homo sapiens, UniProt P06276); assay: Inhibition of butyrylcholinesterase from human serum (Ellman method); format: biochemical; details: for activity on the BuChE: Table 1
T3 construct: purchased Sigma Chemical; host or cells: human serum
Method: as §1, §2

[1] = Acute toxicity (single administration) in mouse; details: in vivo
[2] = Acute toxicity (single administration) in rat; details: in vivo
acetylcholinesterase = details: prior art; cited from earlier work
[3] = prior art; cited from earlier work
[4] = prior art, cited from earlier work; for transaminase levels: Eur. Neuropsychopharmacol. 1(3) (1991)
[5] = tested on: amnesic failure induced by scopolamine; assay: Passive Avoidance test, scopolamine-induced amnesic failure, rats; format: in vivo; details: 0.5-1-2-4 mg/kg per os
[6] = tested on: mental pathologies / Alzheimer's disease; details: prior art, clinical studies; cited from earlier work
[7] = po, os, read-out: Toxicity tests (LD50), mouse os
[8] = iv, read-out: Toxicity tests (LD50), mouse iv
[9] = iv, read-out: Toxicity tests (LD50), rat iv
[10] = po, os, read-out: Toxicity tests (LD50), rat os

T3 sequence (P06276 29-602): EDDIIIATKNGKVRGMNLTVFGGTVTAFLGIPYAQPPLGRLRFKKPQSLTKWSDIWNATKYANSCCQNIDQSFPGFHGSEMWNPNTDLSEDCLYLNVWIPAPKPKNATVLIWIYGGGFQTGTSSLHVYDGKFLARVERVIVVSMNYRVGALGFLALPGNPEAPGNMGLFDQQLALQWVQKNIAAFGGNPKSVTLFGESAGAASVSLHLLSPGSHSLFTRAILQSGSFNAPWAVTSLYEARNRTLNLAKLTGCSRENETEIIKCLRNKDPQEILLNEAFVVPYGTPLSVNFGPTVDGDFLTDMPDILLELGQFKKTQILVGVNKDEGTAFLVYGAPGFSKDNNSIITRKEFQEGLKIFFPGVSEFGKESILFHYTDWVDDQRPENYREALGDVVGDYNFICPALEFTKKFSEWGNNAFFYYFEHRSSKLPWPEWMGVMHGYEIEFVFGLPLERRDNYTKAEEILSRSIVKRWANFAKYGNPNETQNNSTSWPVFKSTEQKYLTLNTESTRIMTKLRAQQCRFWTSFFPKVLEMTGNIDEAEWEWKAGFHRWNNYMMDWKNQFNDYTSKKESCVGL
T2 sequence (P22303 32-617 isoform P22303-2 limits assumed): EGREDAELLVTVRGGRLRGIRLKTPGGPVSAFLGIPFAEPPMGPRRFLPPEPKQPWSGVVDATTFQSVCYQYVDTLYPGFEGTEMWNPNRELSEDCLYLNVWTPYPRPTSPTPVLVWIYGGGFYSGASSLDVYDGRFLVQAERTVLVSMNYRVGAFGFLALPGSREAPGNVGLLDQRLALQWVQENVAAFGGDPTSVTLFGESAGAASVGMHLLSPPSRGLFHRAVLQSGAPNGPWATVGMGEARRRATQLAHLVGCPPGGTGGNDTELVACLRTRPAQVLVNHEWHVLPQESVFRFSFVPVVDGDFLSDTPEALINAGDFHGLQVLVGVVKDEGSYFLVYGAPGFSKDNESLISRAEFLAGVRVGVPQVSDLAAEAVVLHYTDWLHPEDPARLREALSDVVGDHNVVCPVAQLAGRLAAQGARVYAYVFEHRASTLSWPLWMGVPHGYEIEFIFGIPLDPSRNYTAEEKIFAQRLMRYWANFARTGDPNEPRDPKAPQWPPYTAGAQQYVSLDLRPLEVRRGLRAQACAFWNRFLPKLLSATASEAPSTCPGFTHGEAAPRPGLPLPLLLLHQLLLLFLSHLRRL
T1 sequence (O42275 24-633): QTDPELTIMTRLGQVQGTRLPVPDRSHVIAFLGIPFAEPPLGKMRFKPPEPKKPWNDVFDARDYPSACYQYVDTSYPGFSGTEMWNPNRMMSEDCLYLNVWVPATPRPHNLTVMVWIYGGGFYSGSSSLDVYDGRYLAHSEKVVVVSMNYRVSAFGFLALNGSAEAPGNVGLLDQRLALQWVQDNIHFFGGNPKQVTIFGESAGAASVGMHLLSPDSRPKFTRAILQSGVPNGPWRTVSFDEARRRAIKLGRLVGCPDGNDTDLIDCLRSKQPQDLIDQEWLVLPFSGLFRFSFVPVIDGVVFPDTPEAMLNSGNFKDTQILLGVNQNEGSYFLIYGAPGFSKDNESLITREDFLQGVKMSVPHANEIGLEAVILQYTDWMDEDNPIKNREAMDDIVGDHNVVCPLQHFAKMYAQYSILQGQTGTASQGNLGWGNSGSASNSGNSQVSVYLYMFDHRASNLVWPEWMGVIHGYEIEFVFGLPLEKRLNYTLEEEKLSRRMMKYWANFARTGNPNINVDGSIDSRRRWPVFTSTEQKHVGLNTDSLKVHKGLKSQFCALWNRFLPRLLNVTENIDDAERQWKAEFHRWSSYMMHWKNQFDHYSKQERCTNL

| Structure (SMILES) | IC50 (AChE hRBC) [nM] | IC50 (BuChE hserum) [µM] | LD50 [1, 7] [mg/kg] | LD50 [1, 8] [mg/kg] | LD50 [2, 9] [mg/kg] | LD50 [2, 10] [mg/kg] | AChE inhibitory activity and selectivity (AChE hRBC) | potency compared with eptastigmine, physostigmine or tacrine (AChE hRBC; comparison from Table 1) | activity on the BuChE (BuChE hserum) | further results |
| --- | --- | --- | --- | --- | --- | --- | --- | --- | --- | --- |
| C[C@@H]1CN(CCCCCCCCNC(=O)Oc2cccc(C(C)(C)CN(C)C)c2)C[C@H](C)O1 [Ex. 2, 3-[(1-dimethylamino-2-methyl)-prop-2-yl]-N-8-[[4-(cis2,6-dimethyl)morpholinyl]octyl]-phenylcarbamate] | 420 | 0.02 | > 50 | – | – | – | – | – | – | IC50 (AChE E. eel): 1100 nM |
| CCCCCCCNC(=O)Oc1ccc2c(c1)[C@]1(C)CCN(C)[C@@H]1N2C [Eptastigmine, heptylcarbamic ester of the eseroline, reference compound] | – | 0.14 | 25 | 7 | 5 | 23 | – | – | – | IC50 (AChE E. eel; incubation time 10', read-out: Inhibition of the cholinesterase (IC50 M), AChE E. eel): 50 nM; inhibition of acetylcholinesterase (acetylcholinesterase): less powerful; pharmacokinetic characteristics [3]: better pharmacokinetic characteristics; side-effects [4]: reduced side-effects |
| Nc1c2c(nc3ccccc13)CCCC2 [Tacrine, 9-amino-1,2,3,4-tetrahydroacridine] | – | – | – | – | – | – | – | – | – | transaminase levels [4]: induce high transaminase levels |
| Nc1c2c(nc3ccccc13)CCCC2O (stereo not shown) [Velnacrine] | – | – | – | – | – | – | – | – | – | transaminase levels [4]: induce high transaminase levels |
| COc1ccc(N(C)C(=O)Oc2cccc(C(C)(C)CN(C)C)c2)cc1 [Ex. 35, 3-[(1-dimethylamino-2-methyl)prop-2-yl]-N-methyl-N-(4-methoxy)phenyl phenylcarbamate] | 13 | > 100 | – | – | 3 | 40 | potent and selective AChE inhibitory activity | equal or even superior to that of eptastigmine or of physostigmine | poor activity on the BuChE | – |
| CN(C)CC(C)(C)c1cccc(OC(=O)N(C)c2cccc(F)c2)c1 [Ex. 38, 3-[(1-dimethylamino-2-methyl)prop-2-yl]-N-(3-fluoro)phenyl-N-methyl phenylcarbamate] | 50 | > 100 | – | – | – | > 40 | potent and selective AChE inhibitory activity | equal or even superior to that of eptastigmine or of physostigmine | poor activity on the BuChE | – |
| CN(C)CC(C)(C)c1cccc(OC(=O)N(C)c2ccccc2)c1 [Ex. 25, 3-[(1-dimethylamino-2-methyl)prop-2-yl]-N-phenyl-N-methyl-phenylcarbamate] | 1700 | > 1000 | – | 15 | 14 | 56 | potent and selective AChE inhibitory activity | – | poor activity on the BuChE | – |
| CN(C)CC(C)(C)c1cccc(OC(=O)NCCCCCCCCN2CCOCC2)c1 [Ex. 1, 3-[(1-dimethylamino-2-methyl)prop-2-yl]-N-[8-(4-morpholinyl)octyl]phenylcarbamate] | 160 | 0.016 | 67 | 15 | – | 33 | – | equal or even superior to that of eptastigmine or of physostigmine | – | IC50 (AChE E. eel): 470 nM; reduction of amnesic failure induced by scopolamine in the Passive Avoidance test [5]: able to reduce the amnesic failure induced by scopolamine |
| CNC(=O)Oc1ccc2c(c1)[C@]1(C)CCN(C)[C@@H]1N2C [Physostigmine, reference compound] | – | – | 3.4 | 0.6 | – | – | – | – | – | potency compared with eptastigmine, physostigmine or tacrine (AChE hRBC): superior to that of tacrine; inhibition of acetylcholinesterase (acetylcholinesterase): powerful natural inhibitor of the acetylcholinesterase; pharmacokinetic characteristics [3]: unfavourable pharmacokinetic characteristics; efficacy in patients [6]: beneficial results in the treatment of the patients affected by mental pathologies |
